Assay: Cytotoxicity against oysters heart cells at 0.5 ug/ml
Format: cell-based
Settings: ostreidae

Structure (SMILES) | Activity
CC/C=C\C/C=C\C/C=C\C/C=C\C/C=C\CC(=O)OC[C@H](CO[C@@H]1O[C@H](CO)[C@H](O)[C@H](O)[C@H]1O)OC(=O)C/C=C\C/C=C\C/C=C\C/C=C\C/C=C\CC | Toxic
CC/C=C\C/C=C\C/C=C\C/C=C\C/C=C\CC(=O)OC[C@H](CO[C@@H]1O[C@H](CO[C@H]2O[C@H](CO)[C@H](O)[C@H](O)[C@H]2O)[C@H](O)[C@H](O)[C@H]1O)OC(=O)CCCC/C=C\C/C=C\C/C=C\C/C=C\CC | Toxic
CC/C=C\C/C=C\C/C=C\C/C=C\C/C=C\CC(=O)OC[C@H](CO[C@@H]1O[C@H](CO)[C@H](O)[C@H](O)C1O)OC(=O)CCCC/C=C\C/C=C\C/C=C\C/C=C\CC (single isomer, unassigned) | Toxic

Reference: ChEMBL document CHEMBL1150662, “A new digalactosyl diacylglycerol from a cultured marine dinoflagellate Heterocapsa circularisquama” (J Nat Prod, 2002)
